System: C57BL/6 male mice
Test: Urinary glucose excretion test (UGE test)
Assay type: in vivo
Conditions: 2 g/kg glucose after 30 minutes, urine collected for 24 hours
Experimental: The pharmaceutical efficacies of the compounds prepared in the Examples were investigated by a urinary glucose excretion test using C57BL/6 male mice (8-week-old, prepared and supplied from Orient Chemical Co. Ltd.).
Two mice were used in each group. The mice were fasted for 16 hours, and the compound of each of the Examples [10 mg/kg of the compound of Examples 1 to 12; and 3 mg/kg of the compound of Examples 13 to 38] was dissolved in a vehicle [a mixed solution of 5% 1-methyl-2-pyrrolidinone, 20% PEG, and 75% 20 mM sodium diphosphate], and orally administered to the mice. After 30 minutes, 2 g/kg of glucose was orally administered to the mice in all the groups. Thereafter, the mice were immediately put into a metabolic cage, and urine was collected for 24 hours. The mice were freely fed an hour after the administration of glucose.
The results obtained from the test, that is, the results obtained by measuring urinary glucose excretion in the C57BL/6 male mice according to the compounds of the Examples, are listed in Table 5.

[1] = 10 mg/kg oral (Examples 1 to 12)
[2] = 3 mg/kg oral (Examples 13 to 38)

CCOc1ccc(Cc2cc([C@@H]3O[C@H](CO)[C@@H](O)[C@H](O)[C@H]3O)cc3c2OCC3)cc1 [Example 1, (2S,3R,4R,5S,6R)-2-(7-(4-ethoxybenzyl)-2,3-dihydrobenzofuran-5-yl)-6-hydroxymethyl-tetrahydro-2H-pyran-3,4,5-triol]
UGE [1]: 1.2 mg/20 g/24 hr

CCOc1ccc(Cc2cc([C@@H]3O[C@H](CO)[C@@H](O)[C@H](O)[C@H]3O)cc3c2CCC3)cc1F [Example 20, (2S,3R,4R,5S,6R)-2-(7-(4-ethoxy-3-fluorobenzyl)-2,3-dihydro-1H-inden-5-yl)-6-(hydroxymethyl)tetrahydro-2H-pyran-3,4,5-triol]
UGE [2]: 0.6 mg/20 g/24 hr

OC[C@H]1O[C@@H](c2cc3c(c(Cc4ccc(C(F)(F)F)cc4)c2)OCC3)[C@H](O)[C@@H](O)[C@@H]1O [Example 4, (2R,3S,4R,5R,6S)-2-hydroxymethyl-6-(7-(4-trifluoromethylbenzyl)-2,3-dihydrobenzofuran-5-yl)tetrahydro-2H-pyran-3,4,5-triol]
UGE [1]: 4.6 mg/20 g/24 hr

CCOc1ccc(Cc2cc([C@@H]3O[C@H](CO)[C@@H](O)[C@H](O)[C@H]3O)cc3c2OCC3)c(F)c1 [Example 10, (2S,3R,4R,5S,6R)-2-(7-(4-ethoxy-2-fluorobenzyl)-2,3-dihydrobenzofuran-5-yl)-6-(hydroxymethyl)tetrahydro-2H-pyran-3,4,5-triol]
UGE [1]: 3.2 mg/20 g/24 hr

CCCc1ccc(Cc2cc([C@@H]3O[C@H](CO)[C@@H](O)[C@H](O)[C@H]3O)cc3c2OCC3)cc1 [Example 3, (2R,3S,4R,5R,6S)-2-hydroxymethyl-6-(7-(4-n-propylbenzyl)-2,3-dihydrobenzofuran-5-yl)-tetrahydro-2H-pyran-3,4,5-triol]
UGE [1]: 3.7 mg/20 g/24 hr

OC[C@H]1O[C@@H](c2cc3c(c(Cc4ccc(O)cc4)c2)OCC3)[C@H](O)[C@@H](O)[C@@H]1O [Example 11, (2S,3R,4R,5S,6R)-2-(7-(4-hydroxybenzyl)-2,3-dihydrobenzofuran-5-yl)-6-(hydroxymethyl)tetrahydro-2H-pyran-3,4,5-triol]
UGE [1]: 3.0 mg/20 g/24 hr

CCOc1ccc(Cc2cc([C@@H]3O[C@H](CO)[C@@H](O)[C@H](O)[C@H]3O)cc3c2CCC3)c(F)c1 [Example 21, (2S,3R,4R,5S,6R)-2-(7-(4-ethoxy-2-fluorobenzyl)-2,3-dihydro-1H-inden-5-yl)-6-(hydroxymethyl)tetrahydro-2H-pyran-3,4,5-triol]
UGE [2]: 4.2 mg/20 g/24 hr

Cc1ccc(Cc2cc([C@@H]3O[C@H](CO)[C@@H](O)[C@H](O)[C@H]3O)cc3c2CCC3)c(F)c1 [Example 26, (2S,3R,4R,5S,6R)-2-(7-(2-fluoro-4-methylbenzyl)-2,3-dihydro-1H-inden-5-yl)-6-(hydroxymethyl)tetrahydro-2H-pyran-3,4,5-triol]
UGE [2]: 4.8 mg/20 g/24 hr

CS(=O)(=O)CCCOc1ccc(Cc2cc(C3O[C@H](CO)[C@@H](O)[C@H](O)[C@H]3O)cc3c2OCC3)cc1 (stereo partly shown) [Example 12]
UGE [1]: 0 mg/20 g/24 hr

OC[C@H]1O[C@@H](c2cc3c(c(Cc4ccc5c(c4)OCCO5)c2)OCC3)[C@H](O)[C@@H](O)[C@@H]1O [Example 7, (2S,3R,4R,5S,6R)-2-(7-((2,3-dihydrobenzo[b][1,4]dioxin-6-yl)methyl)-2,3-dihydrobenzofuran-5-yl)-6-(hydroxymethyl)tetrahydro-2H-pyran-3,4,5-triol]
UGE [1]: 2.8 mg/20 g/24 hr

CCCc1ccc(Cc2cc([C@@H]3O[C@H](CO)[C@@H](O)[C@H](O)[C@H]3O)cc3c2CCC3)cc1 [Example 17, (2R,3S,4R,5R,6S)-2-(hydroxymethyl)-6-(7-(4-propylbenzyl)-2,3-dihydro-1H-inden-5-yl)tetrahydro-2H-pyran-3,4,5-triol]
UGE [2]: 1.0 mg/20 g/24 hr

OC[C@H]1O[C@@H](c2cc3c(c(Cc4ccc(OC(F)(F)F)cc4)c2)OCC3)[C@H](O)[C@@H](O)[C@@H]1O [Example 5, (2R,3S,4R,5R,6S)-2-hydroxymethyl-6-(7-(4-trifluoromethoxybenzyl)-2,3-dihydrobenzofuran-5-yl)tetrahydro-2H-pyran-3,4,5-triol]
UGE [1]: 3.7 mg/20 g/24 hr

CCOc1ccc(Cc2cc([C@@H]3O[C@H](CO)[C@@H](O)[C@H](O)[C@H]3O)cc3c2CCC3)cc1 [Example 13, (2S,3R,4R,5S,6R)-2-(7-(4-ethoxybenzyl)-2,3-dihydro-1H-inden-5-yl)-6-(hydroxymethyl)tetrahydro-2H-pyran-3,4,5-triol]
UGE [2]: 1.7 mg/20 g/24 hr

OC[C@H]1O[C@@H](c2cc3c(c(Cc4ccc(OCC5CC5)cc4)c2)OCC3)[C@H](O)[C@@H](O)[C@@H]1O [Example 8, (2S,3R,4R,5S,6R)-2-(7-(4-(cyclopropylmethoxy)benzyl)-2,3-dihydrobenzofuran-5-yl)-6-(hydroxymethyl)tetrahydro-2H-pyran-3,4,5-triol]
UGE [1]: 4.3 mg/20 g/24 hr

Cc1ccc(Cc2cc([C@@H]3O[C@H](CO)[C@@H](O)[C@H](O)[C@H]3O)cc3c2CCC3)cc1F [Example 25, (2S,3R,4R,5S,6R)-2-(7-(3-fluoro-4-methylbenzyl)-2,3-dihydro-1H-inden-5-yl)-6-(hydroxymethyl)tetrahydro-2H-pyran-3,4,5-triol]
UGE [2]: 5.5 mg/20 g/24 hr

CCc1ccc(Cc2cc([C@@H]3O[C@H](CO)[C@@H](O)[C@H](O)[C@H]3O)cc3c2OCC3)cc1 [Example 2, (2S,3R,4R,5S,6R)-2-(7-(4-ethylbenzyl)-2,3-dihydrobenzofuran-5-yl)-6-hydroxymethyl-tetrahydro-2H-pyran-3,4,5-triol]
UGE [1]: 8.3 mg/20 g/24 hr

CC(C)c1ccc(Cc2cc([C@@H]3O[C@H](CO)[C@@H](O)[C@H](O)[C@H]3O)cc3c2CCC3)cc1 [Example 18, (2R,3S,4R,5R,6S)-2-(hydroxymethyl)-6-(7-(4-isopropylbenzyl)-2,3-dihydro-1H-inden-5-yl)tetrahydro-2H-pyran-3,4,5-triol]
UGE [2]: 7.0 mg/20 g/24 hr

OC[C@H]1O[C@@H](c2cc3c(c(Cc4ccc(F)cc4)c2)OCC3)[C@H](O)[C@@H](O)[C@@H]1O [Example 6, (2S,3R,4R,5S,6R)-2-(7-(4-fluorobenzyl)-2,3-dihydrobenzofuran-5-yl)-6-(hydroxymethyl)tetrahydro-2H-pyran-3,4,5-triol]
UGE [1]: 3.9 mg/20 g/24 hr

CCOc1ccc(Cc2cc([C@@H]3O[C@H](CO)[C@@H](O)[C@H](O)[C@H]3O)cc3c2OCC3)cc1F [Example 9, (2S,3R,4R,5S,6R)-2-(7-(4-ethoxy-3-fluorobenzyl)-2,3-dihydrobenzofuran-5-yl)-6-(hydroxymethyl)tetrahydro-2H-pyran-3,4,5-triol]
UGE [1]: 4.6 mg/20 g/24 hr
